# Test results taken from patent US9439432B2, “Phenylisoxazoline-based compound having herbicidal activity and use thereof” (MOGHU RESEARCH CENTER LTD, priority 2011, dated 2016).
# Test system: Echinochloa crusgalli
# Test: Post-emergence treatment, herbicidal efficacy on barnyardgrass
# Type: in vivo
# Details: post-emergence, 125 g/ha, 4 weeks after spraying, scale 0 to 10
# Procedure: (§1) A rectangular plastic pot having a surface area of 300 cm^2 was filled with sandy loam soil and mixed bed soil which were mixed at a ratio of 1:1, and then, barnyardrass (Echinochloa crusgalli), large crabgrass (Digitaria sanguinalis), blackgrass (Alopecurus myosuroides), and annual bluegrass (Poa annua), which are grass weeds, were seeded thereto. In a pot that was prepared as described above, seeds of corn, soybean, cotton, wheat, and rice were seeded. The pots were irrigated, and one day after, chemicals were sprayed thereto. The spraying was performed by using a track sprayer (R&D Sprayer, USA) equipped with a Teejet 8002 (Spraying Systems Co., USA) nozzle, and a spraying amount was adjusted at 300 L/ha. A spraying solution was prepared by dissolving test materials or references in acetone and adding the same amount of 0.2%(v/v) tween 20 aqueous solution thereto. Application rates were 500, 250, 125, and 62.5 g/ha. The pots were placed in a greenhouse in which during day, the temperature was maintained at a temperature of 25 to 30° C., and during night, the temperature was maintained at a temperature of 15 to 25° C., and the pots were periodically irrigated. Four weeks after the spraying the test materials or References, effects and phytotoxicity of the respective weeds and crops were evaluated in a scale of 0 to 10 (0: no effects, 10: complete death), and results thereof are shown in Table 4 below.
# (§2) Pots containing crops and weeds were prepared in the same manner as in Example 7, and then, in the second week in which crops and weeds entered into about 3 leaf stage, the test materials and the references were sprayed thereto in the same manner as described above. The rates were 1,000, 500, 250, and 125 g/ha. Four weeks after the spraying of the test materials or the references, herbicidal efficacy and phytotoxicity to the respective weeds and crops were evaluated in a scale of 0 to 10 (0: no effects, 10: complete death).
row,SMILES,"Herbicidal efficacy, Echinochloa crusgalli"
1,CC1(COCc2c(F)cccc2Cl)CC(c2ccccc2Cl)=NO1 (stereo not drawn) [Reference B],0

# Same assay, conditions: post-emergence, 250 g/ha, 4 weeks after spraying, scale 0 to 10
row,SMILES,"Herbicidal efficacy, Echinochloa crusgalli"
1,CC1(COCc2c(F)cccc2Cl)CC(c2ccccc2Cl)=NO1 (stereo not drawn) [Reference B],0

# Same assay, conditions: post-emergence, 500 g/ha, 4 weeks after spraying, scale 0 to 10
row,SMILES,"Herbicidal efficacy, Echinochloa crusgalli"
1,CC1(COCc2c(F)cccc2Cl)CC(c2ccccc2Cl)=NO1 (stereo not drawn) [Reference B],1

# Same assay, conditions: post-emergence, 1,000 g/ha, 4 weeks after spraying, scale 0 to 10
row,SMILES,"Herbicidal efficacy, Echinochloa crusgalli"
1,CC1(COCc2c(F)cccc2Cl)CC(c2ccccc2Cl)=NO1 (stereo not drawn) [Reference B],7

# Test system: Wheat
# Test: Post-emergence treatment, phytotoxicity to wheat
# Type: in vivo
# Details: post-emergence (about 3 leaf stage), 1,000 g/ha, 4 weeks after spraying, scale 0 to 10 (0: no effects, 10: complete death)
# Procedure: as §1, §2
row,SMILES,"Phytotoxicity, Wheat"
1,CC1(COCc2c(F)cccc2Cl)CC(c2ccccc2Cl)=NO1 (stereo not drawn) [Reference B],0

# Test system: Soybean
# Test: Post-emergence treatment, phytotoxicity to soybean
# Type: in vivo
# Details: post-emergence (about 3 leaf stage), 1,000 g/ha, 4 weeks after spraying, scale 0 to 10 (0: no effects, 10: complete death)
# Procedure: as §1, §2
row,SMILES,"Phytotoxicity, Soybean"
1,CC1(COCc2c(F)cccc2Cl)CC(c2ccccc2Cl)=NO1 (stereo not drawn) [Reference B],2

# Test system: Rice
# Test: Pre-emergence treatment, phytotoxicity to rice
# Type: in vivo
# Details: 500 g/ha, 4 weeks after spraying, scale 0 to 10 (0: no effects, 10: complete death)
# Procedure: as §1
row,SMILES,"Phytotoxicity, Rice"
1,CC1(COCc2c(F)cccc2Cl)CC(c2ccccc2Cl)=NO1 (stereo not drawn) [Reference B],0

# Test system: Wheat
# Test: Pre-emergence treatment, phytotoxicity to wheat
# Type: in vivo
# Details: 500 g/ha, 4 weeks after spraying, scale 0 to 10 (0: no effects, 10: complete death)
# Procedure: as §1
row,SMILES,"Phytotoxicity, Wheat"
1,CC1(COCc2c(F)cccc2Cl)CC(c2ccccc2Cl)=NO1 (stereo not drawn) [Reference B],0

# Test system: Corn
# Test: Pre-emergence treatment, phytotoxicity to corn
# Type: in vivo
# Details: 500 g/ha, 4 weeks after spraying, scale 0 to 10 (0: no effects, 10: complete death)
# Procedure: as §1
row,SMILES,"Phytotoxicity, Corn"
1,CC1(COCc2c(F)cccc2Cl)CC(c2ccccc2Cl)=NO1 (stereo not drawn) [Reference B],0

# Test system: Digitaria sanguinalis
# Test: Pre-emergence treatment, herbicidal efficacy on large crabgrass
# Type: in vivo
# Details: 62.5 g/ha, 4 weeks after spraying, scale 0 to 10
# Procedure: as §1
row,SMILES,"Herbicidal efficacy, Digitaria sanguinalis"
1,CC1(COCc2c(F)cccc2Cl)CC(c2ccccc2Cl)=NO1 (stereo not drawn) [Reference B],0

# Same assay, conditions: 125 g/ha, 4 weeks after spraying, scale 0 to 10
row,SMILES,"Herbicidal efficacy, Digitaria sanguinalis"
1,CC1(COCc2c(F)cccc2Cl)CC(c2ccccc2Cl)=NO1 (stereo not drawn) [Reference B],4

# Same assay, conditions: 250 g/ha, 4 weeks after spraying, scale 0 to 10
row,SMILES,"Herbicidal efficacy, Digitaria sanguinalis"
1,CC1(COCc2c(F)cccc2Cl)CC(c2ccccc2Cl)=NO1 (stereo not drawn) [Reference B],8

# Same assay, conditions: 500 g/ha, 4 weeks after spraying, scale 0 to 10
row,SMILES,"Herbicidal efficacy, Digitaria sanguinalis"
1,CC1(COCc2c(F)cccc2Cl)CC(c2ccccc2Cl)=NO1 (stereo not drawn) [Reference B],9

# Test system: Soybean
# Test: Pre-emergence treatment, phytotoxicity to soybean
# Type: in vivo
# Details: 500 g/ha, 4 weeks after spraying, scale 0 to 10 (0: no effects, 10: complete death)
# Procedure: as §1
row,SMILES,"Phytotoxicity, Soybean"
1,CC1(COCc2c(F)cccc2Cl)CC(c2ccccc2Cl)=NO1 (stereo not drawn) [Reference B],0

# Test system: Cotton
# Test: Pre-emergence treatment, phytotoxicity to cotton
# Type: in vivo
# Details: 500 g/ha, 4 weeks after spraying, scale 0 to 10 (0: no effects, 10: complete death)
# Procedure: as §1
row,SMILES,"Phytotoxicity, Cotton"
1,CC1(COCc2c(F)cccc2Cl)CC(c2ccccc2Cl)=NO1 (stereo not drawn) [Reference B],0

# Test system: Digitaria sanguinalis
# Test: Post-emergence treatment, herbicidal efficacy on large crabgrass
# Type: in vivo
# Details: post-emergence, 125 g/ha, 4 weeks after spraying, scale 0 to 10
# Procedure: as §1, §2
row,SMILES,"Herbicidal efficacy, Digitaria sanguinalis"
1,CC1(COCc2c(F)cccc2Cl)CC(c2ccccc2Cl)=NO1 (stereo not drawn) [Reference B],0

# Same assay, conditions: post-emergence, 250 g/ha, 4 weeks after spraying, scale 0 to 10
row,SMILES,"Herbicidal efficacy, Digitaria sanguinalis"
1,CC1(COCc2c(F)cccc2Cl)CC(c2ccccc2Cl)=NO1 (stereo not drawn) [Reference B],5

# Same assay, conditions: post-emergence, 500 g/ha, 4 weeks after spraying, scale 0 to 10
row,SMILES,"Herbicidal efficacy, Digitaria sanguinalis"
1,CC1(COCc2c(F)cccc2Cl)CC(c2ccccc2Cl)=NO1 (stereo not drawn) [Reference B],6

# Same assay, conditions: post-emergence, 1,000 g/ha, 4 weeks after spraying, scale 0 to 10
row,SMILES,"Herbicidal efficacy, Digitaria sanguinalis"
1,CC1(COCc2c(F)cccc2Cl)CC(c2ccccc2Cl)=NO1 (stereo not drawn) [Reference B],8

# Test system: Rice
# Test: Post-emergence treatment, phytotoxicity to rice
# Type: in vivo
# Details: post-emergence (about 3 leaf stage), 1,000 g/ha, 4 weeks after spraying, scale 0 to 10 (0: no effects, 10: complete death)
# Procedure: as §1, §2
row,SMILES,"Phytotoxicity, Rice"
1,CC1(COCc2c(F)cccc2Cl)CC(c2ccccc2Cl)=NO1 (stereo not drawn) [Reference B],0

# Test system: Corn
# Test: Post-emergence treatment, phytotoxicity to corn
# Type: in vivo
# Details: post-emergence (about 3 leaf stage), 1,000 g/ha, 4 weeks after spraying, scale 0 to 10 (0: no effects, 10: complete death)
# Procedure: as §1, §2
row,SMILES,"Phytotoxicity, Corn"
1,CC1(COCc2c(F)cccc2Cl)CC(c2ccccc2Cl)=NO1 (stereo not drawn) [Reference B],0

# Test system: Poa annua
# Test: Pre-emergence treatment, herbicidal efficacy on annual bluegrass
# Type: in vivo
# Details: 62.5 g/ha, 4 weeks after spraying, scale 0 to 10
# Procedure: as §1
row,SMILES,"Herbicidal efficacy, Poa annua"
1,CC1(COCc2c(F)cccc2Cl)CC(c2ccccc2Cl)=NO1 (stereo not drawn) [Reference B],2

# Same assay, conditions: 125 g/ha, 4 weeks after spraying, scale 0 to 10
row,SMILES,"Herbicidal efficacy, Poa annua"
1,CC1(COCc2c(F)cccc2Cl)CC(c2ccccc2Cl)=NO1 (stereo not drawn) [Reference B],4

# Same assay, conditions: 250 g/ha, 4 weeks after spraying, scale 0 to 10
row,SMILES,"Herbicidal efficacy, Poa annua"
1,CC1(COCc2c(F)cccc2Cl)CC(c2ccccc2Cl)=NO1 (stereo not drawn) [Reference B],8

# Same assay, conditions: 500 g/ha, 4 weeks after spraying, scale 0 to 10
row,SMILES,"Herbicidal efficacy, Poa annua"
1,CC1(COCc2c(F)cccc2Cl)CC(c2ccccc2Cl)=NO1 (stereo not drawn) [Reference B],10

# Test system: Poa annua
# Test: Post-emergence treatment, herbicidal efficacy on annual bluegrass
# Type: in vivo
# Details: post-emergence, 125 g/ha, 4 weeks after spraying, scale 0 to 10
# Procedure: as §1, §2
row,SMILES,"Herbicidal efficacy, Poa annua"
1,CC1(COCc2c(F)cccc2Cl)CC(c2ccccc2Cl)=NO1 (stereo not drawn) [Reference B],0

# Same assay, conditions: post-emergence, 250 g/ha, 4 weeks after spraying, scale 0 to 10
row,SMILES,"Herbicidal efficacy, Poa annua"
1,CC1(COCc2c(F)cccc2Cl)CC(c2ccccc2Cl)=NO1 (stereo not drawn) [Reference B],1

# Same assay, conditions: post-emergence, 500 g/ha, 4 weeks after spraying, scale 0 to 10
row,SMILES,"Herbicidal efficacy, Poa annua"
1,CC1(COCc2c(F)cccc2Cl)CC(c2ccccc2Cl)=NO1 (stereo not drawn) [Reference B],4

# Same assay, conditions: post-emergence, 1,000 g/ha, 4 weeks after spraying, scale 0 to 10
row,SMILES,"Herbicidal efficacy, Poa annua"
1,CC1(COCc2c(F)cccc2Cl)CC(c2ccccc2Cl)=NO1 (stereo not drawn) [Reference B],6

# Test system: Alopecurus myosuroides
# Test: Post-emergence treatment, herbicidal efficacy on blackgrass
# Type: in vivo
# Details: post-emergence, 125 g/ha, 4 weeks after spraying, scale 0 to 10
# Procedure: as §1, §2
row,SMILES,"Herbicidal efficacy, Alopecurus myosuroides"
1,CC1(COCc2c(F)cccc2Cl)CC(c2ccccc2Cl)=NO1 (stereo not drawn) [Reference B],0

# Same assay, conditions: post-emergence, 250 g/ha, 4 weeks after spraying, scale 0 to 10
row,SMILES,"Herbicidal efficacy, Alopecurus myosuroides"
1,CC1(COCc2c(F)cccc2Cl)CC(c2ccccc2Cl)=NO1 (stereo not drawn) [Reference B],0

# Same assay, conditions: post-emergence, 500 g/ha, 4 weeks after spraying, scale 0 to 10
row,SMILES,"Herbicidal efficacy, Alopecurus myosuroides"
1,CC1(COCc2c(F)cccc2Cl)CC(c2ccccc2Cl)=NO1 (stereo not drawn) [Reference B],0

# Same assay, conditions: post-emergence, 1,000 g/ha, 4 weeks after spraying, scale 0 to 10
row,SMILES,"Herbicidal efficacy, Alopecurus myosuroides"
1,CC1(COCc2c(F)cccc2Cl)CC(c2ccccc2Cl)=NO1 (stereo not drawn) [Reference B],3

# Test system: Echinochloa crusgalli
# Test: Pre-emergence treatment, herbicidal efficacy on barnyardgrass
# Type: in vivo
# Details: 62.5 g/ha, 4 weeks after spraying, scale 0 to 10
# Procedure: as §1
row,SMILES,"Herbicidal efficacy, Echinochloa crusgalli"
1,CC1(COCc2c(F)cccc2Cl)CC(c2ccccc2Cl)=NO1 (stereo not drawn) [Reference B],2

# Same assay, conditions: 125 g/ha, 4 weeks after spraying, scale 0 to 10
row,SMILES,"Herbicidal efficacy, Echinochloa crusgalli"
1,CC1(COCc2c(F)cccc2Cl)CC(c2ccccc2Cl)=NO1 (stereo not drawn) [Reference B],5

# Same assay, conditions: 250 g/ha, 4 weeks after spraying, scale 0 to 10
row,SMILES,"Herbicidal efficacy, Echinochloa crusgalli"
1,CC1(COCc2c(F)cccc2Cl)CC(c2ccccc2Cl)=NO1 (stereo not drawn) [Reference B],7

# Same assay, conditions: 500 g/ha, 4 weeks after spraying, scale 0 to 10 (0: no effects, 10: complete death)
row,SMILES,"Herbicidal efficacy, Echinochloa crusgalli"
1,CC1(COCc2c(F)cccc2Cl)CC(c2ccccc2Cl)=NO1 (stereo not drawn) [Reference B],10

# Test system: Alopecurus myosuroides
# Test: Pre-emergence treatment, herbicidal efficacy on blackgrass
# Type: in vivo
# Details: 62.5 g/ha, 4 weeks after spraying, scale 0 to 10
# Procedure: as §1
row,SMILES,"Herbicidal efficacy, Alopecurus myosuroides"
1,CC1(COCc2c(F)cccc2Cl)CC(c2ccccc2Cl)=NO1 (stereo not drawn) [Reference B],0

# Same assay, conditions: 125 g/ha, 4 weeks after spraying, scale 0 to 10
row,SMILES,"Herbicidal efficacy, Alopecurus myosuroides"
1,CC1(COCc2c(F)cccc2Cl)CC(c2ccccc2Cl)=NO1 (stereo not drawn) [Reference B],0

# Same assay, conditions: 250 g/ha, 4 weeks after spraying, scale 0 to 10
row,SMILES,"Herbicidal efficacy, Alopecurus myosuroides"
1,CC1(COCc2c(F)cccc2Cl)CC(c2ccccc2Cl)=NO1 (stereo not drawn) [Reference B],3

# Same assay, conditions: 500 g/ha, 4 weeks after spraying, scale 0 to 10
row,SMILES,"Herbicidal efficacy, Alopecurus myosuroides"
1,CC1(COCc2c(F)cccc2Cl)CC(c2ccccc2Cl)=NO1 (stereo not drawn) [Reference B],10

# Test system: Cotton
# Test: Post-emergence treatment, phytotoxicity to cotton
# Type: in vivo
# Details: post-emergence (about 3 leaf stage), 1,000 g/ha, 4 weeks after spraying, scale 0 to 10 (0: no effects, 10: complete death)
# Procedure: as §1, §2
row,SMILES,"Phytotoxicity, Cotton"
1,CC1(COCc2c(F)cccc2Cl)CC(c2ccccc2Cl)=NO1 (stereo not drawn) [Reference B],0
